≈ marks a conversion by molar mass, not a printed value. Read-outs that look alike come from different tables or passages of the source.
Assays:
[1] = test system: Clavibacter michiganensis subsp. michiganensis (field isolates KNOB16, KNOB23), tomato canker-causing bacteria; assay: MIC by broth microdilution (investigation of measurement conditions); type: cell-based
[2] = test system: Ralstonia solanacearum (field isolates KNOB38, KNOB39), eggplant wilt-causing bacteria; assay: microbe, parasite or virus in culture; type: cell-based
[3] = test system: field isolates listed in Table 6 (KNOB30 to KNOB110), bacteria pathogenic to crops; assay: MIC of various amino acid-containing particles, HI medium; type: cell-based; details: 24 hours after addition
Method: (1) Freeze-stored 4 strains were seeded on heart infusion medium and PSA medium. (2) Seeded bacteria were cultured at 25° C. for 48 hours. (3) The antibacterial activity was assessed by measurement of the minimum inhibitory concentration (MIC) in accordance with a broth microdilution method. HI medium prepared without agar was used as a liquid medium. […] The above-described antibacterial agents were added to the liquid media at various concentrations, respectively, and the cultured bacteria described in (2) were inoculated thereto, followed by judgement of the results 24 hours and 48 hours after inoculation. The tests were repeated three times (n=3).
The antibacterial activity of nanoparticles containing Gly, Arg, Asp, or Ala produced above was examined. As test bacteria, field isolates listed in Table 6, tomato canker-causing bacteria standard strains (JCM1370, JCM1373), and kidney bean wilt-causing bacterium Curtobacterium flaccumfaciens pv. flaccumfaciens standard strain (JCM1347) were used.

[4] = test system: tomato canker-causing bacteria standard strains (JCM1370, JCM1373); type: cell-based, Clavibacter michiganensis subsp. michiganensis; details: 24 hours after addition
[5] = test system: Curtobacterium flaccumfaciens pv. flaccumfaciens standard strain (JCM1347), kidney bean wilt-causing bacterium; assay: MIC of various amino acid-containing particles, HI medium; type: cell-based; details: 24 hours after addition
[6] = Clavibacter michiganensis, 24 h, KNOB16, HI medium, 24 H later
[7] = Clavibacter michiganensis, 24 h, KNOB16, PSA medium, 24 H later
[8] = Clavibacter michiganensis, 24 h, KNOB23, HI medium, 24 H later
[9] = Clavibacter michiganensis, 24 h, KNOB23, PSA medium, 24 H later
[10] = Clavibacter michiganensis, 48 h, KNOB16, HI medium, 48 H later
[11] = Clavibacter michiganensis, 48 h, KNOB16, PSA medium, 48 H later
[12] = Clavibacter michiganensis, 48 h, KNOB23, HI medium, 48 H later
[13] = Clavibacter michiganensis, 48 h, KNOB23, PSA medium, 48 H later
[14] = 24 h, KNOB30, HI medium, read-out: MIC
[15] = 24 h, KNOB33, HI medium, read-out: MIC
[16] = 24 h, KNOB67, HI medium, read-out: MIC
[17] = 24 h, KNOB75, HI medium, read-out: MIC
[18] = 24 h, KNOB105, HI medium, read-out: MIC
[19] = 24 h, KNOB106, HI medium, read-out: MIC
[20] = 24 h, KNOB108, HI medium, read-out: MIC
[21] = 24 h, KNOB110, HI medium, read-out: MIC
[22] = Curtobacterium flaccumfaciens, read-out: MIC

## CC1(C)S[C@@H]2[C@H](NC(=O)[C@H](N)c3ccccc3)C(=O)N2[C@H]1C(=O)O [ABPC, ampicillin]
[1]; [6]
  MIC: 0.25 µg/mL (≈ 0.715 µM)
[1]; [7]
  MIC: 0.5 µg/mL (≈ 1.43 µM)
[1]; [8]
  MIC: 0.25 µg/mL (≈ 0.715 µM)
[1]; [9]
  MIC: 0.5 µg/mL (≈ 1.43 µM)
[1]; [10]
  MIC: 0.25 µg/mL (≈ 0.715 µM)
[1]; [11]
  MIC: 1 µg/mL (≈ 2.86 µM)
[1]; [12]
  MIC: 0.25 µg/mL (≈ 0.715 µM)
[1]; [13]
  MIC: 0.5 µg/mL (≈ 1.43 µM)
[2]; KNOB39, HI medium, 24 H later
  MIC: 0.5 µg/mL (≈ 1.43 µM)
[2]; KNOB39, HI medium, 48 H later
  MIC: 0.5 µg/mL (≈ 1.43 µM)
[2]; Ralstonia solanacearum, 24 h
  MIC: 0.5 µg/mL (≈ 1.43 µM)
[2]; Ralstonia solanacearum, 48 h
  MIC: 0.5 µg/mL (≈ 1.43 µM)
[3]; [14]
  MIC: 0.5 µg/mL
[3]; [15]
  MIC: < 0.25 µg/mL
[3]; 24 h, KNOB64, HI medium
  MIC: < 0.25 µg/mL
[3]; [16]
  MIC: < 0.25 µg/mL
[3]; [17]
  MIC: 0.5 µg/mL
[3]; [18]
  MIC: < 0.25 µg/mL
[3]; [19]
  MIC: < 0.25 µg/mL
[3]; [20]
  MIC: 0.5 µg/mL
[3]; [21]
  MIC: < 0.25 µg/mL
[4]; JCM1370, HI medium
  MIC: 0.5 µg/mL (≈ 1.43 µM)
[4]; JCM1373, HI medium
  MIC: 1 µg/mL (≈ 2.86 µM)
[5]; [22]
  MIC: 2 µg/mL

## CCO [EtOH, ethanol]
[1]; KNOB16, HI medium, 24 H later
  MIC: 15 µg/mL (≈ 326 µM)
[1]; KNOB16, HI medium, 48 H later
  MIC: 30 µg/mL (≈ 651 µM)
[1]; KNOB16, PSA medium, 24 H later
  MIC: 60 µg/mL (≈ 1300 µM)
[1]; KNOB16, PSA medium, 48 H later
  MIC: 7.5 µg/mL (≈ 163 µM)
[1]; KNOB23, HI medium, 24 H later
  MIC: 15 µg/mL (≈ 326 µM)
[1]; KNOB23, HI medium, 48 H later
  MIC: 30 µg/mL (≈ 651 µM)
[1]; KNOB23, PSA medium, 24 H later
  MIC: 7.5 µg/mL (≈ 163 µM)
[1]; KNOB23, PSA medium, 48 H later
  MIC: 15 µg/mL (≈ 326 µM)
[2]; KNOB38, HI medium, 24 H later
  MIC: 7.5 µg/mL (≈ 163 µM)
[2]; KNOB38, HI medium, 48 H later
  MIC: 15 µg/mL (≈ 326 µM)
[2]; KNOB39, HI medium, 24 H later
  MIC: 7.5 µg/mL (≈ 163 µM)
[2]; KNOB39, HI medium, 48 H later
  MIC: 7.5 µg/mL (≈ 163 µM)
[2]; comparison of MIC values of Table 5
  antibacterial activity against eggplant wilt-causing bacteria compared with KAS: stronger than KAS and nanoparticles
[3]; KNOB30, HI medium
  MIC: 30 µg/mL
[3]; KNOB33, HI medium
  MIC: 30 µg/mL
[3]; KNOB64, HI medium
  MIC: 30 µg/mL
[3]; KNOB67, HI medium
  MIC: 30 µg/mL
[3]; KNOB75, HI medium
  MIC: 60 µg/mL
[3]; KNOB105, HI medium
  MIC: 15 µg/mL
[3]; KNOB106, HI medium
  MIC: 7.5 µg/mL
[3]; KNOB108, HI medium
  MIC: 15 µg/mL
[3]; KNOB110, HI medium
  MIC: 15 µg/mL
[4]; JCM1370, HI medium
  MIC: 15 µg/mL (≈ 326 µM)
[4]; JCM1373, HI medium
  MIC: 30 µg/mL (≈ 651 µM)
[5]
  MIC: 15 µg/mL

## C[C@H]1O[C@H](O[C@H]2[C@H](O)[C@@H](O)[C@@H](O)[C@H](O)[C@@H]2O)[C@@H](N)C[C@@H]1NC(=N)C(=O)O [KAS, kasugamycin]
[1]; KNOB16, HI medium, 24 H later
  MIC: 32 µg/mL (≈ 84.4 µM)
[1]; KNOB16, HI medium, 48 H later
  MIC: 32 µg/mL (≈ 84.4 µM)
[1]; KNOB16, PSA medium, 24 H later
  MIC: 16 µg/mL (≈ 42.2 µM)
[1]; KNOB16, PSA medium, 48 H later
  MIC: 16 µg/mL (≈ 42.2 µM)
[1]; KNOB23, HI medium, 24 H later
  MIC: 32 µg/mL (≈ 84.4 µM)
[1]; KNOB23, HI medium, 48 H later
  MIC: 32 µg/mL (≈ 84.4 µM)
[1]; KNOB23, PSA medium, 24 H later
  MIC: 16 µg/mL (≈ 42.2 µM)
[1]; KNOB23, PSA medium, 48 H later
  MIC: 32 µg/mL (≈ 84.4 µM)
[2]; KNOB38, HI medium, 24 H later
  MIC: 8 µg/mL (≈ 21.1 µM)
[2]; KNOB38, HI medium, 48 H later
  MIC: 16 µg/mL (≈ 42.2 µM)
[2]; KNOB39, HI medium, 24 H later
  MIC: 8 µg/mL (≈ 21.1 µM)
[2]; KNOB39, HI medium, 48 H later
  MIC: 16 µg/mL (≈ 42.2 µM)
[3]; KNOB30, HI medium
  MIC: 32 µg/mL
[3]; KNOB33, HI medium
  MIC: 64 µg/mL
[3]; KNOB64, HI medium
  MIC: 64 µg/mL
[3]; KNOB67, HI medium
  MIC: 64 µg/mL
[3]; KNOB75, HI medium
  MIC: 64 µg/mL
[3]; KNOB105, HI medium
  MIC: 32 µg/mL
[3]; KNOB106, HI medium
  MIC: 32 µg/mL
[3]; KNOB108, HI medium
  MIC: 32 µg/mL
[3]; KNOB110, HI medium
  MIC: 32 µg/mL
[4]; JCM1370, HI medium
  MIC: 128 µg/mL (≈ 337 µM)
[4]; JCM1373, HI medium
  MIC: 64 µg/mL (≈ 169 µM)
[5]
  MIC: 128 µg/mL

## [H]/N=C(/N)N[C@H]1[C@H](O)[C@@H](O)[C@H](O[C@@H]2O[C@@H](C)[C@](O)(C=O)[C@H]2O[C@@H]2O[C@@H](CO)[C@H](O)[C@@H](O)[C@@H]2NC)[C@@H](N/C(N)=N\[H])[C@@H]1O [ST, streptomycin]
[1]; [6]
  MIC: 2 µg/mL (≈ 3.44 µM)
[1]; [7]
  MIC: 4 µg/mL (≈ 6.88 µM)
[1]; [8]
  MIC: 1 µg/mL (≈ 1.72 µM)
[1]; [9]
  MIC: 4 µg/mL (≈ 6.88 µM)
[1]; [10]
  MIC: 2 µg/mL (≈ 3.44 µM)
[1]; [11]
  MIC: 8 µg/mL (≈ 13.8 µM)
[1]; [12]
  MIC: 1 µg/mL (≈ 1.72 µM)
[1]; [13]
  MIC: 4 µg/mL (≈ 6.88 µM)
[2]; KNOB39, HI medium, 24 H later
  MIC: 8 µg/mL (≈ 13.8 µM)
[2]; KNOB39, HI medium, 48 H later
  MIC: 8 µg/mL (≈ 13.8 µM)
[2]; Ralstonia solanacearum, 24 h
  MIC: 8 µg/mL (≈ 13.8 µM)
[2]; Ralstonia solanacearum, 48 h
  MIC: 8 µg/mL (≈ 13.8 µM)
[3]; [14]
  MIC: 1.56 µg/mL
[3]; [15]
  MIC: 0.78 µg/mL
[3]; 24 h, KNOB64, HI medium
  MIC: 1.56 µg/mL
[3]; [16]
  MIC: 1.56 µg/mL
[3]; [17]
  MIC: 1.56 µg/mL
[3]; [18]
  MIC: 1.56 µg/mL
[3]; [19]
  MIC: 1.56 µg/mL
[3]; [20]
  MIC: 1.56 µg/mL
[3]; [21]
  MIC: 1.56 µg/mL
[4]; JCM1370, HI medium
  MIC: 3.9 µg/mL (≈ 6.71 µM)
[4]; JCM1373, HI medium
  MIC: 7.8 µg/mL (≈ 13.4 µM)
[5]; [22]
  MIC: 0.39 µg/mL
